In US11584710B2, “Compounds for treating infections” (HORITZONTS TECNOLOGICS HUNGARY KORLÁTOLT FELELOSSÉGU …, priority 2017, dated 2023):

Assays:
S. cerevisiae [1] = system: S. cerevisiae; design: key: I = intermediate activity; S = susceptibility; R = Resistance; conditions: S. cerevisiae clinical strain; cited from earlier work
C. glabrata = system: C. glabrata; design: key: I = intermediate activity; S = susceptibility; R = Resistance; conditions: C. glabrata clinical strain; cited from earlier work
C. parapsilosis [2] = system: C. parapsilosis; design: key: I = intermediate activity; S = susceptibility; R = Resistance; conditions: C. parapsilosis clinical strain; cited from earlier work
C. Krusei = system: C. Krusei; design: key: I = intermediate activity; S = susceptibility; R = Resistance; conditions: C. Krusei clinical strain; cited from earlier work
C. guillermondii [3] = system: C. guillermondii; design: key: I = intermediate activity; S = susceptibility; R = Resistance; conditions: C. guillermondii clinical strain; cited from earlier work
C. tropicalis [4] = system: C. tropicalis; design: key: I = intermediate activity; S = susceptibility; R = Resistance; conditions: C. tropicalis clinical strain; cited from earlier work
A. fumigatus [5] = system: A. fumigatus; design: key: I = intermediate activity; S = susceptibility; R = Resistance; conditions: A. fumigatus clinical strain; cited from earlier work
A. terreus [6] = system: A. terreus; design: key: I = intermediate activity; S = susceptibility; R = Resistance; conditions: A. terreus clinical strain; cited from earlier work
C. lusitaniae [7] = system: C. lusitaniae; design: key: I = intermediate activity; S = susceptibility; R = Resistance; conditions: C. lusitaniae clinical strain; cited from earlier work
A. niger [8] = system: A. niger; design: key: I = intermediate activity; S = susceptibility; R = Resistance; conditions: A. niger clinical strain; cited from earlier work
A. flavus [9] = system: A. flavus; design: key: I = intermediate activity; S = susceptibility; R = Resistance; conditions: A. flavus clinical strain; cited from earlier work
C. albicans [10] = system: C. albicans; design: key: I = intermediate activity; S = susceptibility; R = Resistance; conditions: C. albicans clinical strain; cited from earlier work
A. terreus [11] = experiment: Antifungal disk diffusion susceptibility test (CLSI M44); type: cell-based; conditions: Aspergillus terreus; A. terreus; 10 μg control
Method: (§1) Filamentous fungi and yeasts strains, from clinical origin, were supplied by Microbiology Service from The Princess Hospital, Madrid. They are detailed in Table IX.
(§2) Filamentous fungi and yeast cells suspensions in distilled water was prepared from a culture of 24-48 h, depending on species, in Sabouraud agar. Each suspension was adjusted to a fixed size inoculum of 1-5×10^8 CFU/ml with a spectrophotometer (Ferraro, MJ National Committee for Clinical Laboratory Standards. 2000).
(§3) Antifungal susceptibility tests were developed following the standardized methodology detailed in document CLSI: M44-4: Method for Antifungal Disk diffusion susceptibility testing of yeasts consisting of disk diffusion on agar Muller-Hinton (supplemented with 2% glucose).

C. albicans [12] = experiment: as above; type: cell-based; conditions: Candida albicans; C. albicans; 10 μg control
Method: as §1, §2, §3

C. lusitaniae [13] = experiment: as above; type: cell-based; conditions: Clavispora lusitaniae; C. lusitaniae; 10 μg control
Method: as §1, §2, §3

C. tropicalis [14] = experiment: as above; type: cell-based; conditions: Candida tropicalis; C. tropicalis; 10 μg control
Method: as §1, §2, §3

S. cerevisiae [15] = experiment: as above; type: cell-based; conditions: Saccharomyces cerevisiae; S. cerevisiae; 10 μg control
Method: as §1, §2, §3

A. niger [16] = experiment: as above; type: cell-based; conditions: Aspergillus niger; A. niger; 10 μg control
Method: as §1, §2, §3

C. parapsilosis [17] = experiment: as above; type: cell-based; conditions: Lodderomyces parapsilosis; C. parapsilosis; 10 μg control
Method: as §1, §2, §3

A. flavus [18] = experiment: as above; type: cell-based; conditions: Aspergillus flavus; A. flavus; 10 μg control
Method: as §1, §2, §3

C. guillermondii [19] = experiment: as above; type: cell-based; conditions: C. guillermondii; 10 μg control
Method: as §1, §2, §3

A. fumigatus [20] = experiment: as above; type: cell-based; conditions: Aspergillus fumigatus; A. fumigatus; 10 μg control
Method: as §1, §2, §3

E. cloacae = experiment: Kirby-Bauer disk diffusion susceptibility test; type: cell-based; conditions: 300 μg
Method: (§4) Bacterial strains, from clinical origin, were supplied by the National Center for Microbiology, Institute of Health Carlos III (Majadahonda, Madrid). They are detailed in Table 1.
(§5) Bacterial cells suspension in sterile saline was prepared from a culture of 24-72 h, depending on bacterial species, in Mueller-Hinton Agar with 5% sheep blood. Each suspension was adjusted to a fixed size inoculum of 1-5×10^8 CFU/ml with a spectrophotometer (Ferraro, MJ National Committee for Clinical Laboratory Standards. 2000).
(§6) Kirby-Bauer disk diffusion susceptibility test protocol was utilized to determine the sensitivity or resistance of pathogenic bacteria against the compounds and others antibiotics. The absence of growth around the disks is an indirect measure of the ability of this compound to inhibit an organism (Kirby, W., et al., Antibiotics Annu. 1956-1957:892). After 18 to 72 hours of incubation at 37° C., with or without CO2, under aerobic or anaerobic conditions, depending on the bacterial species, halo of growth inhibition were obtained and evaluated.
(§7) Interpretation of susceptibility and resistance was based on the presence or absence of a zone of inhibition surrounding the disk. Kirby-Bauer disk diffusion susceptibility test is a common method which uses antibiotic-impregnated wafers to test whether bacteria are affected by antibiotics. The size of the zone of inhibition depends on how effective the antibiotic is at stopping the growth of the bacterium. A stronger antibiotic will create a larger zone, because a lower concentration of the antibiotic is enough to stop growth.
(§8) All compounds were tested at 300 μg/disc.

A. baumannii = experiment: Kirby-Bauer disk diffusion susceptibility test; type: cell-based; conditions: 300 μg
Method: as §4, §5, §6, §7, §8

S. epidermidis = experiment: Kirby-Bauer disk diffusion susceptibility test; type: cell-based; conditions: 300 μg
Method: as §4, §5, §6, §7, §8

N. cyriacigeorgica = experiment: Kirby-Bauer disk diffusion susceptibility test; type: cell-based; conditions: 300 μg
Method: as §4, §5, §6, §7, §8

M. abscessus = experiment: Kirby-Bauer disk diffusion susceptibility test; type: cell-based; conditions: 300 μg
Method: as §4, §5, §6, §7, §8

E. faecium = experiment: Kirby-Bauer disk diffusion susceptibility test; type: cell-based; conditions: 300 μg
Method: as §4, §5, §6, §7, §8

N. carnea = experiment: Kirby-Bauer disk diffusion susceptibility test; type: cell-based; conditions: 300 μg
Method: as §4, §5, §6, §7, §8

P. aeruginosa = experiment: Kirby-Bauer disk diffusion susceptibility test; type: cell-based; conditions: 300 μg
Method: as §4, §5, §6, §7, §8

S. pneumoniae = experiment: Kirby-Bauer disk diffusion susceptibility test; type: cell-based; conditions: 300 μg
Method: as §4, §5, §6, §7, §8

E. coli = experiment: Kirby-Bauer disk diffusion susceptibility test; type: cell-based; conditions: 300 μg
Method: as §4, §5, §6, §7, §8

E. faecalis = experiment: Kirby-Bauer disk diffusion susceptibility test; type: cell-based; conditions: E. foecalis; 300 μg
Method: as §4, §5, §6, §7, §8

K. pneumoniae = experiment: Kirby-Bauer disk diffusion susceptibility test; type: cell-based; conditions: 300 μg
Method: as §4, §5, §6, §7, §8

C. difficile = experiment: Kirby-Bauer disk diffusion susceptibility test; type: cell-based; conditions: 300 μg
Method: as §4, §5, §6, §7, §8

T. pulmonis = experiment: Kirby-Bauer disk diffusion susceptibility test; type: cell-based; conditions: 300 μg
Method: as §4, §5, §6, §7, §8

Row | Compound | Susceptibility of the strain (S. cerevisiae [1]) | Susceptibility of the strain (C. glabrata) | Susceptibility of the strain (C. parapsilosis [2]) | Susceptibility of the strain (C. Krusei) | Susceptibility of the strain (C. guillermondii [3]) | Susceptibility of the strain (C. tropicalis [4]) | Susceptibility of the strain (A. fumigatus [5]) | Susceptibility of the strain (A. terreus [6]) | Susceptibility of the strain (C. lusitaniae [7]) | Susceptibility of the strain (A. niger [8]) | Susceptibility of the strain (A. flavus [9]) | Susceptibility of the strain (C. albicans [10]) | other results
1 | OC(Cn1cncn1)(Cn1cncn1)c1ccc(F)cc1F [Fluconazole] | S | S | S | S | R | S | R | R | S | R | R | S | –
2 | C[C@@H]1[C@H](O)[C@@H](C)/C=C/C=C/C=C/C=C/C=C/C=C/C=C/[C@H](O[C@@H]2O[C@H](C)[C@@H](O)[C@H](N)[C@@H]2O)C[C@@H]2O[C@](O)(C[C@@H](O)C[C@@H](O)[C@H](O)CC[C@@H](O)C[C@@H](O)CC(=O)O[C@H]1C)C[C@H](O)[C@H]2C(=O)O [Amphotericin B] | I | S | S | I | R | S | S | I | I | S | I | I | –
3 | Clc1ccccc1C(c1ccccc1)(c1ccccc1)n1ccnc1 [Clo, clotrimazol] | R | S | S | S | R | S | S | S | S | S | S | S | zone of inhibition at 10 µg/disc (A. terreus [11]): 26 mm; zone of inhibition at 10 µg/disc (C. albicans [12]): 15 mm; zone of inhibition at 10 µg/disc (C. lusitaniae [13]): 41 mm; zone of inhibition at 10 µg/disc (C. tropicalis [14]): 25 mm; zone of inhibition at 10 µg/disc (S. cerevisiae [15]): 30 mm; zone of inhibition at 10 µg/disc (A. niger [16]): 25 mm; zone of inhibition at 10 µg/disc (C. parapsilosis [17]): 42 mm; zone of inhibition at 10 µg/disc (A. flavus [18]): 32 mm; zone of inhibition at 10 µg/disc (C. guillermondii [19]): 44 mm; zone of inhibition at 10 µg/disc (A. fumigatus [20]): 22 mm
4 | NNC(=O)C(=O)NNc1ccc(OC(=O)c2ccccc2)cc1 [MSG-231] | – | – | – | – | – | – | – | – | – | – | – | – | Antibiotic activity (Table VIII, zone of inhibition) (E. cloacae): 10 mm; Antibiotic activity (Table VIII, zone of inhibition) (A. baumannii): 20 mm; Antibiotic activity (Table VIII, zone of inhibition) (S. epidermidis): 33 mm; Antibiotic activity (Table VIII, zone of inhibition) (N. cyriacigeorgica): 33 mm; Antibiotic activity (Table VIII, zone of inhibition) (M. abscessus): 27 mm; Antibiotic activity (Table VIII, zone of inhibition) (E. faecium): 27 mm; Antibiotic activity (Table VIII, zone of inhibition) (N. carnea): 38 mm; Antibiotic activity (Table VIII, zone of inhibition) (P. aeruginosa): 11 mm; Antibiotic activity (Table VIII, zone of inhibition) (S. pneumoniae): 24 mm; Antibiotic activity (Table VIII, zone of inhibition) (E. coli): 17 mm; Antibiotic activity (Table VIII, zone of inhibition) (E. faecalis): 29 mm; Antibiotic activity (Table VIII, zone of inhibition) (K. pneumoniae): 10 mm; Antibiotic activity (Table VIII, zone of inhibition) (C. difficile): 24 mm; Antibiotic activity (Table VIII, zone of inhibition) (T. pulmonis): 27 mm
